Data taken from patent US20200261421A1, “HETEROCYCLIC COMPOUNDS AS HIV PROTEASE INHIBITORS” (Merck Sharp & Dohme Corp., priority 2016, published 2020).

Target: T1, wild-type HIV-1 protease (Human immunodeficiency virus type 1 group M subtype B, UniProt P04585)
T1 construct: Escherichia coli expressed wild-type HIV-1 protease protein; made in house; host or cells: Escherichia coli
Assay: Assay for Inhibition of Microbial Expressed HIV Protease
Assay type: biochemical
Settings: Escherichia coli expressed wild-type HIV-1 protease, peptide substrate cleavage; mean of at least two independent experiments
Outline: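 E. coli-expressed wild-type HIV-1 protease (20 pM) was preincubated with inhibitor for 30 min at room temperature in 50 mM sodium acetate pH 5.5, 100 mM NaCl, 0.1% BSA. It was then reacted with 400 μM peptide substrate for 1 h at 30 °C. Cleavage product was quantified by LC-MS/MS, and IC50 is the mean of at least two experiments.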

CC(C)CC1(c2ccccc2)NC(=N)N(Cc2ccc(Cl)c(C(=O)N[C@H](C)c3ccc(F)cc3)c2)C1=O (stereo partly drawn) [Example 76, 2-chloro-N-[(1R)-1-(4-fluorophenyl)ethyl]-5-{[2-imino-4-(2-methylpropyl)-5-oxo-4-phenylimidazolidin-1-yl]methyl}benzamide]
IC50: 40.1 nM

COc1ccc(CN2C(=N)NC(c3ccccc3)(c3ccccc3)C2=O)cc1C(=O)N(C)[C@H](C)c1ccccc1 [Example 77, 5-[(2-imino-5-oxo-4,4-diphenylimidazolidin-1-yl)methyl]-2-methoxy-N-methyl-N-[(1R)-1-phenylethyl]benzamide]
IC50: 43.4 nM

COc1ccc(CN2C(=N)NC(c3ccccc3)(c3ccccc3)C2=O)cc1C(=O)N(C)Cc1ccc(F)cc1 [Example 78, N-(4-fluorobenzyl)-5-[(2-imino-5-oxo-4,4-diphenylimidazolidin-1-yl)methyl]-2-methoxy-N-methylbenzamide]
IC50: 53.6 nM

C[C@H](c1ccc(F)cc1)N(C)C(=O)c1cncc(CN2C(=N)NC(c3ccc(F)cc3)(c3ccc(F)cc3)C2=O)c1 [Example 79, 5-{[4,4-bis(4-fluorophenyl)-2-imino-5-oxoimidazolidin-1-yl]methyl}-N-[(1R)-1-(4-fluorophenyl)ethyl]-N-methylpyridine-3-carboxamide]
IC50: 13.7 nM

CN(Cc1ccc(F)cc1)C(=O)c1cncc(CN2C(=N)NC(c3ccc(F)cc3)(c3ccc(F)cc3)C2=O)c1 [Example 80, 5-{[4,4-bis(4-fluorophenyl)-2-imino-5-oxoimidazolidin-1-yl]methyl}-N-(4-fluorobenzyl)-N-methylpyridine-3-carboxamide]
IC50: 15.4 nM

CN(Cc1ccc(Cl)cc1)C(=O)c1cncc(CN2C(=N)NC(c3ccc(F)cc3)(c3ccc(F)cc3)C2=O)c1 [Example 81, 5-{[4,4-bis(4-fluorophenyl)-2-imino-5-oxoimidazolidin-1-yl]methyl}-N-(4-chlorobenzyl)-N-methylpyridine-3-carboxamide]
IC50: 22.7 nM

CN(Cc1ccc(Cl)cn1)C(=O)c1cncc(CN2C(=N)NC(c3ccc(F)cc3)(c3ccc(F)cc3)C2=O)c1 [Example 82, 5-{[4,4-bis(4-fluorophenyl)-2-imino-5-oxoimidazolidin-1-yl]methyl}-N-[(5-chloropyridin-2-yl)methyl]-N-methylpyridine-3-carboxamide]
IC50: 43.7 nM

CC(C)CCC1(c2ccccc2)NC(=N)N(Cc2cncc(C(=O)N(C)Cc3ccc(C#N)cc3)c2)C1=O (centres unmarked) [Example 83, N-(4-cyanobenzyl)-5-{[2-imino-4-(3-methylbutyl)-5-oxo-4-phenylimidazolidin-1-yl]methyl}-N-methylpyridine-3-carboxamide]
IC50: 50.4 nM

CC(C)CC1(c2ccccc2)NC(=N)N(Cc2cncc(C(=O)N(C)Cc3ccc(C#N)cc3)c2)C1=O (centres unmarked) [Example 84, N-(4-cyanobenzyl)-5-{[2-imino-4-(2-methylpropyl)-5-oxo-4-phenylimidazolidin-1-yl]methyl}-N-methylpyridine-3-carboxamide]
IC50: 93 nM

CN(Cc1ccc(C#N)cc1)C(=O)c1ccnc(CN2C(=N)NC(c3ccccc3)(c3ccccc3)C2=O)c1 [Example 85, N-(4-cyanobenzyl)-2-[(2-imino-5-oxo-4,4-diphenylimidazolidin-1-yl)methyl]-N-methylpyridine-4-carboxamide]
IC50: 5.4 nM

CN(Cc1ccc(Cl)cc1)C(=O)c1ccnc(CN2C(=N)NC(c3ccccc3)(c3ccccc3)C2=O)c1 [Example 86, N-(4-chlorobenzyl)-2-[(2-imino-5-oxo-4,4-diphenylimidazolidin-1-yl)methyl]-N-methylpyridine-4-carboxamide]
IC50: 7.72 nM

CC(C)CC1(c2ccccc2)NC(=N)N(Cc2cc(C(=O)N(C)Cc3ccc(C#N)cc3)ccn2)C1=O (centres unmarked) [Example 87, N-(4-cyanobenzyl)-2-{[2-imino-4-(2-methylpropyl)-5-oxo-4-phenylimidazolidin-1-yl]methyl}-N-methylpyridine-4-carboxamide]
IC50: 15.5 nM

CC(C)CCC1(c2ccccc2)NC(=N)N(Cc2cc(C(=O)N(C)Cc3ccc(C#N)cc3)ccn2)C1=O (centres unmarked) [Example 88, N-(4-cyanobenzyl)-2-{[2-imino-4-(3-methylbutyl)-5-oxo-4-phenylimidazolidin-1-yl]methyl}-N-methylpyridine-4-carboxamide]
IC50: 17.1 nM

CN(Cc1ccc(Cl)cc1)C(=O)c1ccnc(CN2C(=N)NC(c3ccc(F)cc3)(c3ccc(F)cc3)C2=O)c1 [Example 89, 2-{[4,4-bis(4-fluorophenyl)-2-imino-5-oxoimidazolidin-1-yl]methyl}-N-(4-chlorobenzyl)-N-methylpyridine-4-carboxamide]
IC50: 18.9 nM

CN(Cc1ccc(F)cc1)C(=O)c1ccnc(CN2C(=N)NC(c3ccccc3)(c3ccccc3)C2=O)c1 [Example 90, N-(4-fluorobenzyl)-2-[(2-imino-5-oxo-4,4-diphenylimidazolidin-1-yl)methyl]-N-methylpyridine-4-carboxamide]
IC50: 24.6 nM

CC(C)CC1(c2ccccc2)NC(=N)N(Cc2cc(C(=O)N(C)Cc3ccc(Cl)cc3)ccn2)C1=O (centres unmarked) [Example 91, N-(4-chlorobenzyl)-2-{[2-imino-4-(2-methylpropyl)-5-oxo-4-phenylimidazolidin-1-yl]methyl}-N-methylpyridine-4-carboxamide]
IC50: 34.1 nM

CN(Cc1ccccc1S(C)(=O)=O)C(=O)c1ccnc(CN2C(=N)NC(c3ccccc3)(c3ccccc3)C2=O)c1 [Example 92, 2-[(2-imino-5-oxo-4,4-diphenylimidazolidin-1-yl)methyl]-N-methyl-N-[2-(methylsulfonyl)benzyl]pyridine-4-carboxamide]
IC50: 53 nM

Cc1cc(CN2C(=N)NC(c3ccc(F)cc3)(c3ccc(F)cc3)C2=O)cc(C(=O)N(C)Cc2ccc(F)cc2)n1 [Example 93, 4-{[4,4-bis(4-fluorophenyl)-2-imino-5-oxoimidazolidin-1-yl]methyl}-N-(4-fluorobenzyl)-N,6-dimethylpyridine-2-carboxamide]
IC50: 32.6 nM

CN(Cc1ccc(F)cc1)C(=O)c1csc(CN2C(=N)NC(c3ccccc3)(c3ccccc3)C2=O)c1 [Example 94, N-(4-fluorobenzyl)-5-[(2-imino-5-oxo-4,4-diphenylimidazolidin-1-yl)methyl]-N-methylthiophene-3-carboxamide]
IC50: 8.9 nM

CN(Cc1ccc(F)cc1)C(=O)c1csc(CN2C(=N)NC(c3ccccc3)(c3ccccc3)C2=O)n1 [Example 95, N-(4-fluorobenzyl)-2-[(2-imino-5-oxo-4,4-diphenylimidazolidin-1-yl)methyl]-N-methyl-1,3-thiazole-4-carboxamide]
IC50: 30 nM
